Assay results reported in US4119635A, “Substituted 1,2,4-triazole derivatives” (Gruppo Lepetit S.p.A., priority 1971, dated 1978).
Like-named read-outs stand apart in the source and are kept apart here.

Legend:
[1] = system: mice; assay: Spontaneous activity (S. Irwin scheme); format: in vivo; settings: Mus musculus, ip, read-out: Decrease of spontaneous activity ED50
Source text: (§1) As stated before, the compounds of the invention have CNS depressant utility. More exactly, the compounds of Examples 1,2,3,5-10, 14, 31(42), 32(56), 34, 35 and 45(55) are useful as sedatives and hypnotics. These pharmacological properties were ascertained by following the operative scheme and the manipulation procedure described by S. Irwin in Psychopharmacologia (Berl.), 13, 222, 1968. Especially, there were studied the biological effects of the compounds on two of the parameters which are closely related to the above properties, namely the "spontaneous activity" and the "righting reflex". The effects of the compounds on these two parameters were expressed as ED50 values ie., the amount of compound tested which reduces the spontaneous activity and righting reflex scores of test animals to 50% of those of the controls. The scores are the same as those reported by S. Irwin in the cited paper. For each compound it was also determined the minimal dosis which produces complete hypnosis of the test animals (MHD).
(§2) The obtained results are summarized in the following table, which also reports the toxicities of the tested substances, expressed as LD50 values. For comparison purposes, also the activity of two known compounds was determined. The known compounds are 1-methyl-3,5-diphenyl-1,2,4-triazole (Compound A, Atkinson et al. Journ. Chem. Soc., 1954, 141, 1954) and 1-methyl-3-phenyl-5-(p-chlorophenyl)-1,2,4-triazole (Compound B, Huisgen et al., Journ. Org. Chem., 24, 892, 1959).

[2] = Toxicity (LD50); settings: mouse, in vivo, ip
Protocol: as §2

[3] = system: mice; assay: Righting reflex (S. Irwin scheme); format: in vivo; settings: Mus musculus, ip, read-out: Impairment of righting reflex ED50
Source text: as §1, §2

[4] = system: mice; assay: Minimal dosis which produces complete hypnosis (MHD); format: in vivo; settings: Mus musculus, ip, read-out: Minimal hypnotic dosis
Source text: as §1

[5] = system: rats; assay: Secondary response avoidance test (G. Maffii), antianxiety effect; format: in vivo; settings: 20 mg/kg i.p.
Protocol: The compounds of Examples 34 and 45(55) are also useful as anxiety relieving means. This property was investigated on the basis of the secondary response avoidance test, which was performed as described by G. Maffii, Journ. Pharm. Pharmacol., 11, 192, 1959.

[6] = mice, dose reducing score to 50% of controls

SMILES | ED50 [1] | LD50 ([2]; mice, read-out: Toxicity LD50) | ED50 [3] | minimal effective dose ([4]; mice, complete hypnosis) | antianxiety effect [5] | minimal effective dose [4] | ED50 [1, 6] | ED50 [3, 6] | LD50 [2]
Cc1ccccc1-c1nc(-c2ccccc2)nn1C [31(42), 1-Methyl-5-(o-tolyl)-3-phenyl-1,2,4-triazole] | 60 mg/kg | > 1000 mg/kg | 50 mg/kg | 300 mg/kg |  |  |  |  | 
Cc1cccc(-c2nc(-c3ccccc3C)n(C)n2)c1 [32(56), 1-Methyl-3-(m-tolyl)-5-(o-tolyl)-1,2,4-triazole] | 30 mg/kg | > 1000 mg/kg | 20 mg/kg | 200 mg/kg |  |  |  |  | 
Cc1ccccc1-c1nc(-c2cccc(Cl)c2)nn1C [45(55), 1-Methyl-3-(3-chlorophenyl)-5-(o-tolyl)-1,2,4-triazole] | 30 mg/kg | 700 mg/kg | 50 mg/kg | 300 mg/kg | remarkable antianxiety effect |  |  |  | 
Cn1nc(-c2ccccc2)nc1-c1ccccc1 [Compound A, 1-methyl-3,5-diphenyl-1,2,4-triazole, reference compound] | > 100 mg/kg | 1000 mg/kg | 300 mg/kg |  |  | > 1000 mg/kg |  |  | 
Cn1nc(-c2ccccc2)nc1-c1ccc(Cl)cc1 [Compound B, 1-methyl-3-phenyl-5-(p-chlorophenyl)-1,2,4-triazole, reference compound] |  | > 1000 mg/kg |  | > 600 mg/kg |  |  | > 300 mg/kg | > 300 mg/kg | 
Cn1nc(-c2ccccc2)nc1-c1ccccc1CO [Example 1, 5-(2-Hydroxymethylphenyl)-1-methyl-3-phenyl-1,2,4-triazole] |  | 1000 mg/kg |  | 300 mg/kg |  |  | 60 mg/kg | 100 mg/kg | 
Cn1nc(-c2ccccc2Cl)nc1-c1ccccc1CO [Example 2] | 60 mg/kg | 500 mg/kg | 60 mg/kg | 300 mg/kg |  |  |  |  | 
Cn1nc(-c2cccc(Cl)c2)nc1-c1ccccc1CO [Example 3] | 30 mg/kg | 500 mg/kg | 10 mg/kg | 200 mg/kg |  |  |  |  | 
Cn1nc(-c2cccc(F)c2)nc1-c1ccccc1CO [Example 5] | 30 mg/kg | 400 mg/kg | 50 mg/kg | 150 mg/kg |  |  |  |  | 
Cc1ccccc1-c1nc(-c2ccccc2CO)n(C)n1 [Example 6, 1-methyl-3-(o-tolyl)-5-(2-hydroxymethylphenyl)-1,2,4-triazole] | 50 mg/kg | 1000 mg/kg | 25 mg/kg | 600 mg/kg |  |  |  |  | 
Cc1cccc(-c2nc(-c3ccccc3CO)n(C)n2)c1 [Example 7] |  |  |  | 80 mg/kg |  |  | 30 mg/kg | 20 mg/kg | 500 mg/kg
Cc1ccc(-c2nc(-c3ccccc3CO)n(C)n2)cc1 [Example 8] |  |  |  | 600 mg/kg |  |  | 80 mg/kg | 100 mg/kg | > 1000 mg/kg
COc1cccc(-c2nc(-c3ccccc3CO)n(C)n2)c1 [Example 9] |  |  |  | 300 mg/kg |  |  | 60 mg/kg | 60 mg/kg | 1000 mg/kg
Cn1nc(-c2cccc([N+](=O)[O-])c2)nc1-c1ccccc1CO [Example 10, 1-methyl-3-(3-nitrophenyl)-5-(2-hydroxymethylphenyl)-1,2,4-triazole] |  | 1000 mg/kg |  | 300 mg/kg |  |  | 60 mg/kg | 40 mg/kg | 
Cn1nc(-c2ccc3c(c2)OCO3)nc1-c1ccccc1CO [Example 14] |  |  |  | 300 mg/kg |  |  | 80 mg/kg | 80 mg/kg | > 1000 mg/kg
Cc1ccccc1-c1nc(-c2cccc(N)c2)nn1C [Example 34, 1-Methyl-3-(3-aminophenyl)-5-(o-tolyl)-1,2,4-triazole] | 30 mg/kg | 200 mg/kg | 20 mg/kg | 60 mg/kg | remarkable antianxiety effect |  |  |  | 
COc1cccc(-c2nc(-c3ccccc3C)n(C)n2)c1 [Example 35, 1-Methyl-3-(3-methoxyphenyl)-5-(o-tolyl)-1,2,4-triazole] | 60 mg/kg | 1000 mg/kg | 50 mg/kg | 300 mg/kg |  |  |  |  | 
